In patent US11814652B2, “Pluripotent stem cell differentiation-promoting agent” (Oriental Yeast Co., Ltd., priority 2018, dated 2023):

Assays:
Format in all cases: cell-based
iPS cells 253G1 strain [1] = test: Cell number in endodermal differentiation-induction after undifferentiated culture with β-NMN (Example 5); details: β-NMN 0.25 or 1 mM in culture medium for iPS cells before endodermal differentiation-induction; 7th day after seeding; versus no β-NMN
Description: The effects of culturing in the presence of β-NMN before induction of differentiation on the endodermal differentiation-induction of iPS cells was examined. As the iPS cells, the 253G1 strain was used. iPS cells seeded on a culture dish coated with Matrigel (manufactured by Corning Incorporated) according to the manufacturer's protocol were cultured in a culture medium prepared by adjusting a culture medium for iPS cells to have a final concentration of β-NMN 0, 0.25 or 1 mM, and a final concentration of Rock inhibitor of 10 μM for 1 day. From the 1st day after seeding, the culture medium was replaced every day with a culture medium obtained by removing the Rock inhibitor from the culture medium at the time of seeding. When the confluent reached 70 to 80%, the iPS cells were detached from the culture dish and collected. The collected iPS cells were seeded at 3×10^5 cells/well in a 24-well plate coated with Matrigel (manufactured by Corning Incorporated) according to the manufacturer's protocol. The cells in the 24-well plate were cultured for 1 day in a culture medium prepared by removing β-NMN from the culture medium when culturing in the culture dish and adjusting to have a final concentration of Rock inhibitor of 10 μM. […] Cells on the 7th day after seeding were sampled and the numbers of cells were counted.

iPS cells 253G1 strain [2] = test: Flow cytometry of Sox17/CXCR4 endodermal markers, differentiation-induction in medium with β-NMN (Example 4); details: endodermal differentiation-inducing medium with β-NMN 0.1, 0.25 or 1 mM; 5th or 7th day; versus absence of β-NMN
Description: The effects of β-NMN on the induction of endodermal differentiation of iPS cells were examined. As the iPS cells, the 253G1 strain was used. The iPS cells were seeded in a 24-well plate coated with Matrigel (manufactured by Corning Incorporated) according to the manufacturer's protocol at 3×10^5 cells/well. The cells in the 24-well plate were cultured in a culture medium for iPS cells adjusted to have a final concentration of Rock inhibitor of 10 μM for 1 day. From the 1st day after seeding, the culture medium was replaced with a culture medium prepared by adjusting an endoderm differentiation-inducing culture medium of “STEMdiff Trilineage Differentiation kit” (manufactured by STEMCELL Technologies) to have a final concentration of β-NMN of 0, 0.1, 0.25, or 1 mM for 1 day. […] Then, the cells were stained with a fluorescence-labeled anti-Sox17 antibody (manufactured by Becton, Dickinson and Company, clone P7-969) and a fluorescence-labeled anti-CXCR4 antibody (manufactured by Biolegend, clone 12G5). After washing the stained cells, a flow cytometer “FACS caliber” (manufactured by Becton, Dickinson and Company) was used to analyze the fluorescence intensity of the anti-Sox17 antibody and the fluorescence intensity of the anti-CXCR4 antibody in each sample. […]

[3] = tested on: Human adipose tissue-derived mesenchymal stem cells; test: Alizarin Red S staining after bone differentiation-induction of mesenchymal stem cells grown with β-NMN (Example 8); details: growth medium supplemented with 0.1 mM or 0.25 mM of β-NMN; 14 days after initiation of bone differentiation-induction; compared with 0 mM
Text: The effects of culturing in the presence of β-NMN before bone differentiation-induction of mesenchymal stern cells were examined. Human adipose tissue-derived mesenchymal stem cells (manufactured by Lonza, Cat #PT5006) were used as the mesenchymal stem cells. As a growth medium, a culture medium prepared by appropriately adding β-MNM to “MSCGM Bullet Kit” (manufactured by Lonza, Cat #PT3001) was used. As a bone differentiation-inducing culture medium, a culture medium prepared by adjusting an α-MEM culture medium to have a final concentration of fetal bovine serum of 10% by volume, a final concentration of dexamethasone of 10 nM, a final concentration of β-glycerophosphate of 10 mM, a final concentration of ascorbic acid of 50 μg/mL, and a final concentration of penicillin-streptomycin of 0.1%. The mesenchymal stem cells were seeded in a culture dish at 5×10^3 cells/cm^2 and statically cultured in a growth culture medium not containing β-MNM at 37° C., 5% by volume (CO2) for 1 day. From one day after seeding, the culture medium was replaced every 2 days with a growth culture medium adjusted to have a final concentration of β-MNM of 0, 0.1, or 0.25 mM. Further, when the cell density in the culture dish reached 80 to 90% of the confluent, the cells were passaged. […]

## NC(=O)c1ccc[n+]([C@@H]2O[C@H](COP(=O)([O-])O)[C@@H](O)[C@H]2O)c1 [β-NMN, β-nicotinamide mononucleotide]
iPS cells 253G1 strain [1]
  cell number: no clear difference
iPS cells 253G1 strain [2]
  ratio of Sox17-positive CXCR4-positive cells: no clear difference
[3]
  calcium deposition (Alizarin Red S staining): strongly observed
